Assay results: US20230372427A1, “THE COMPOSITIONS OF PLANT INGREDIENTS AND HERBS AGAINST CORONAVIRUS” (priority 2022, published 2023)

Tested on: wild-type SARS-CoV-2 pseudotyped lentivirus (WT-GFP-SARS-CoV-2-pseudotyped lentivirus)
Assay: microbe, parasite or virus in culture
Assay type: cell-based
Details: HEK-293T, 72 h, read-out: inhibitory effect (viral entry), positive control

CCN(CC)CCCC(C)Nc1ccnc2cc(Cl)ccc12 (stereo not shown) [chloroquine, Chloroquine]
inhibition at 0.5 µg/mL: ~70%
